Test results from ChEMBL document CHEMBL1201862, “PubChem BioAssay data set” (2004).
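Cultured in 96-well plates, cells were exposed to test compound for 48 hours across five concentrations. Abbreviation: GI50, concentration required for 50% inhibition of growth.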 The source made the active and inactive calls. Rule as the data show it: active = GI50 up to about 1.1 µM and inactive = higher.

Tests used:
Test in all cases: NCI tumour cell line growth inhibition, 48 h
NCI-H460 = tested on: NCI-H460
CAKI-1 = tested on: CAKI-1
HL-60 = tested on: HL-60
OVCAR-8 = tested on: OVCAR-8
TK-10 = tested on: TK-10
OVCAR-4 = tested on: OVCAR-4
SF-539 = tested on: SF-539
K562 = tested on: K562
HCT-116 = tested on: HCT-116
A498 = tested on: A498
SNB-19 = tested on: SNB-19
KM12 = tested on: KM12
NCI-H23 = tested on: NCI-H23
U-251 = tested on: U-251
Malme-3M = tested on: Malme-3M
A549 = tested on: A549
SR = tested on: SR

Measured: GI50

O=C1C2=C(c3ccccc31)C(c1ccccc1Cl)NC(S)=N2 (stereo not drawn)
inactive: NCI-H460 72.8 µM | CAKI-1 38.2 µM | HL-60 34 µM | OVCAR-8 53 µM | TK-10 75.2 µM | OVCAR-4 35.6 µM | SF-539 97.1 µM | K562 49.2 µM | HCT-116 44.9 µM | A498 61.8 µM | SNB-19 52.1 µM | KM12 44.5 µM | NCI-H23 39.4 µM | U-251 77.6 µM | Malme-3M 39 µM | A549 85.1 µM

COC(=O)c1oc([N+](=O)[O-])c(-c2ccccc2)c1-c1ccccc1
inactive: NCI-H460 > 100 µM | CAKI-1 > 100 µM | OVCAR-8 > 100 µM | TK-10 > 100 µM | OVCAR-4 > 100 µM | SF-539 > 100 µM | K562 > 100 µM | HCT-116 > 100 µM | A498 > 100 µM | SNB-19 > 100 µM | KM12 > 100 µM | NCI-H23 > 100 µM | U-251 > 100 µM | Malme-3M > 100 µM | A549 > 100 µM

CC(=O)Nc1ccc(C2C(C(=O)Nc3ccccc3)=C(C)NC(C)=C2C(=O)Nc2ccccc2)cc1
inactive: NCI-H460 > 100 µM | CAKI-1 > 100 µM | HL-60 39.8 µM | OVCAR-8 > 100 µM | TK-10 > 100 µM | OVCAR-4 > 100 µM | SF-539 > 100 µM | K562 > 100 µM | HCT-116 > 91 µM | A498 > 100 µM | SNB-19 > 100 µM | KM12 > 100 µM | NCI-H23 > 100 µM | U-251 > 100 µM | Malme-3M > 100 µM | A549 > 100 µM

COC(=O)/C(C=O)=C/Sc1ccccc1
inactive: NCI-H460 32.1 µM | CAKI-1 24.2 µM | HL-60 45.5 µM | OVCAR-8 15.6 µM | TK-10 40.6 µM | OVCAR-4 45 µM | SF-539 18 µM | K562 50.7 µM | HCT-116 22.5 µM | SNB-19 54.5 µM | KM12 24.1 µM | SR 40.1 µM | NCI-H23 36.4 µM | U-251 17.1 µM | A549 11.3 µM

O=C1C2C(C(=O)N1c1ccccc1)C1c3ccccc3C2C2C(=O)N(c3ccccc3)C(=O)C21 (stereo not drawn)
inactive: NCI-H460 3.71 µM | CAKI-1 11.3 µM | HL-60 2.9 µM | OVCAR-8 7.08 µM | TK-10 > 100 µM | OVCAR-4 22.8 µM | SF-539 3.56 µM | K562 3.42 µM | HCT-116 3.12 µM | A498 6.71 µM | SNB-19 6.27 µM | KM12 6.1 µM | NCI-H23 18.5 µM | U-251 2.82 µM | Malme-3M 3.9 µM | A549 5.86 µM
